In one experiment the test system is KK-A^y mice. Description: Liver triglyceride content in nonalcoholic simple fatty liver model (KK-A^y mice). The experiment is classed as in vivo. As to conditions: for Effect on liver triglyceride content (in words): versus vehicle; for Liver triglyceride content: mean±standard error. The protocol:
KK-A^y mice (female, purchased from CLEA Japan, Inc.) were used. The mice were fed with CMF (for special breeding, purchased from Oriental Yeast Co., Ltd., Japan) ad libitum. At 14 weeks of age, they were measured for their body weight, blood glucose levels, plasma insulin levels, plasma triglyceride levels and plasma alanine aminotransferase (ALT), and then divided into two groups such that these items were equal between the groups (8 animals per group). The first group was administered with vehicle (0.5% methylcellulose) at a dose of 10 mL/kg, and the second group was administered with a choline salt of (1S)-1,5-anhydro-1-[5-(azulen-2-ylmethyl)-2-hydroxyphenyl]-D-glucitol (i.e., a choline salt of Compound A) at a dose of 3 mg/kg (calculated as Compound A), each being administered orally once a day for 2 weeks. On the day following the final administration, the liver was collected from each mouse under ether anesthesia, frozen in liquid nitrogen and then stored at −80° C.
Liver triglyceride content was measured in the following manner.
1. A portion (50 to 150 mg) of each liver frozen and stored at −80° C. was taken to an Assist tube. 2. After addition of methanol (2 mL), the liver sample was homogenized with a POLYTRON (KINEMATICA). 3. To the homogenate, chloroform (4 mL) was added and vigorously stirred at room temperature for 10 minutes. 4. Milli-Q water (1 mL) was further added and vigorously stirred. 5. The sample was centrifuged in a low speed centrifuge (Hitachi, Ltd., Japan) (2,500 rpm, 5 min, room temperature). 6. A portion of the lower layer (total volume: 4.5 mL) was taken to an Eppendorf tube and evaporated in a centrifugal evaporator (Sakuma Seisakusho, Japan) to remove the solvent. 7. The residue in the Eppendorf tube was dissolved again by addition of ethanol (10 μL). 8. Triglyceride E-Test Wako reagent (1 mL, Wako Pure Chemical Industries, Ltd., Japan) was added to the resulting solution, and triglycerides were quantified. 9. From the result obtained above, the triglyceride content per g of liver was calculated for each sample. The data were expressed as mean±standard error.
(§1) The test was conducted in the same manner as shown in Example 1, except that this test was conducted with 3 groups of 8 animals, and the first group was administered with vehicle (0.5% methylcellulose) at a dose of 10 mL/kg, the second group was administered with a co-crystal (1:1 molar ratio) of (1S)-1,5-anhydro-1-[3-(1-benzothiophen-2-ylmethyl)-4-fluorophenyl]-D-glucitol (Compound B) and L-proline at a dose of 3 mg/kg (calculated as Compound B), and the third group was administered with a control compound, 2-(4-methoxybenzyl)phenyl 6-O-ethoxycarbonyl-β-D-glucopyranoside (hereinafter also referred to as Compound X, whose structural formula is shown below) disclosed in Patent Document 1 (supra) at a dose of 36 mg/kg, each being administered orally once a day for 2 weeks. Then, the liver triglyceride content was measured for each group in the same manner as shown in Example 1.
as §1, with “Compound B” for “(1S)-1,5-anhydro-1-[3-(1-benzothiophen-2-ylmethyl)-4-fluorophenyl]-D-glucitol (Compound B)”, “T-1095 disclosed in Patent Document 2 (supra), i.e., 3-(benzo[b]furan-5-yl)-2′,6′-dihydroxy-4′-methylpropiophenone 2′-O-(6-O-methoxycarbonyl)-β-D-glucopyranoside” for “2-(4-methoxybenzyl)phenyl 6-O-ethoxycarbonyl-β-D-glucopyranoside”, “Y,” for “X,”, “below)” for “below) disclosed in Patent Document 1 (supra)”, “34” for “36”
The test was conducted in the same manner as shown in Example 1. […]

The next experiment concerns SGLT. As to conditions: disclosed in Patent Documents 3, 5 and 6; cited from earlier work.
For experiment [1], the system named is CDAA diet-fed Wistar rats. Description: Nonalcoholic steatohepatitis model, CDAA diet-fed rats: hepatic fibrosis score. The experiment is classed as in vivo. As to conditions: Example 5, FIG. 3; co-crystal of Compound B and L-proline 3 mg/kg orally once a day for 5 weeks; five-point scale 0-4; versus CDAA diet vehicle group. The protocol: This test was conducted by reference to a document (Biochem Biophys Res Commun., 2004, 315(1), 187-195). Wistar rats (male, purchased from Charles River Japan, Inc.) were used. The rats were fed with CDAA diet (choline-deficient L-amino acid-defined diet (Choline Deficient and Iron Supplemented L-Amino Acid Defined Rat Diet, Dyets)) or normal control diet (Choline and Iron Supplemented L-Amino Acid Defined Rat Diet, Dyets) ad libitum. At 9 weeks of age, they were measured for their body weight and divided into groups of equal body weight, followed by initiation of the test (10 animals per group). […] The second and third groups were fed with CDAA diet, and the second group was administered with vehicle (0.5% methylcellulose) at a dose of 5 mL/kg, while the third group was administered with a co-crystal (1:1 molar ratio) of Compound B and L-proline at a dose of 3 mg/kg (calculated as Compound B). […] After a portion of the liver was fixed in 10% neutral buffered formalin, paraffin sections (3 μm) were prepared in a standard manner and subjected to van Gieson staining Fibrosis was evaluated by reference to the Brunt classification (Clinical Practice Guidelines for NASH/NAFLD, edited by the Japan Society of Hepatology, 2006), based on a five-point scale of 0, 1, 2, 3 and 4 (see Table 4).

For a further experiment, the system named is MCD diet-fed Wistar rats. Description: Nonalcoholic steatohepatitis model, MCD diet-fed rats: liver histopathology scores. The settings on record: co-crystal of Compound B and L-proline 3 mg/kg orally once a day for 16 weeks, five-point scale 0-4, versus MCD diet vehicle group. The experiment is classed as in vivo. The protocol:
This test was conducted by reference to a document (J. Hepatol., 2003, 39, 756-764). Wistar rats (male, purchased from Charles River Japan, Inc.) were used. The rats were fed with MCD diet (methionine/choline-deficient diet, MP Biochemicals) or normal control diet (methionine/choline control diet, MP Biochemicals) ad libitum. At 9 weeks of age, they were measured for their body weight and divided into groups of equal body weight, followed by initiation of the test (10 animals per group). The first group was fed with normal control diet and administered with vehicle (0.5% methylcellulose) at a dose of 5 mL/kg. The second and third groups were fed with MCD diet, and the second group was administered with vehicle (0.5% methylcellulose) at a dose of 5 mL/kg, while the third group was administered with a co-crystal (1:1 molar ratio) of Compound B and L-proline at a dose of 3 mg/kg (calculated as Compound B). Each drug was administered orally once a day for 16 weeks. On the day following the final administration, the liver was collected from each rat under ether anesthesia and a portion of the liver was fixed in 10% neutral buffered formalin. […]

Another experiment deals with db/db mice. As to conditions: disclosed in Patent Document 2; cited from earlier work.

In the case of `OC[C@H]1O[C@@H](c2cc(Cc3cc4cccccc-4c3)ccc2O)[C@H](O)[C@@H](O)[C@@H]1O` [Compound A, (1S)-1,5-anhydro-1-[5-(azulen-2-ylmethyl)-2-hydroxyphenyl]-D-glucitol], in the experiment with KK-A^y mice (Example 1, 3 mg/kg orally once a day for 2 weeks), the “Effect on liver triglyceride content (in words)” value (from here on “Effect”) is recorded as “significantly improved”. Also, in the experiment with KK-A^y mice (Example 1, choline salt of Compound A, 3 mg/kg (calculated as Compound A) orally once a day for 2 weeks, vehicle 60.0 ± 8.4), the Liver triglyceride content is on record as 30.7 ± 5.4 mg/g liver. For the same compound, the SGLT inhibitory activity result in the experiment on SGLT is “shows SGLT inhibitory activity”.

Turning to `OC[C@H]1O[C@@H](c2ccc(F)c(Cc3cc4ccccc4s3)c2)[C@H](O)[C@@H](O)[C@@H]1O` [Compound B, (1S)-1,5-anhydro-1-[3-(1-benzothiophen-2-ylmethyl)-4-fluorophenyl]-D-glucitol], the “Effect” value with KK-A^y mice (Example 2, 3 mg/kg orally once a day for 2 weeks) is given as “significantly improved”; in the experiment on KK-A^y mice (Example 3, 3 mg/kg orally once a day for 2 weeks), “significantly improved”. For the same compound, the Liver triglyceride content in the experiment on KK-A^y mice (Example 2, co-crystal of Compound B and L-proline, 3 mg/kg (calculated as Compound B) orally once a day for 2 weeks, vehicle 52.8 ± 4.9) is on record as 34.8 ± 1.9 mg/g liver; in the experiment on KK-A^y mice (Example 3, co-crystal of Compound B and L-proline, 3 mg/kg (calculated as Compound B) orally once a day for 2 weeks, vehicle 59.7 ± 6.2), 41.2 ± 5.1 mg/g liver. In addition, the “Pathological score of hepatic fibrosis” value in experiment [1] is given as “significantly improved”; with MCD diet-fed Wistar rats (Example 4, FIG. 2) it was “significantly improved”. In addition, in the experiment on MCD diet-fed Wistar rats (Example 4, FIG. 1), the “Pathological score of inflammatory cell infiltration” value is listed as “significantly improved”. Moreover, the SGLT inhibitory activity result with SGLT is reported as “shows SGLT inhibitory activity”.

On to `CCOc1ccc(Cc2cc([C@@H]3O[C@H](CO)[C@@H](O)[C@H](O)[C@H]3O)ccc2Cl)cc1` [Compound C, (1S)-1,5-anhydro-1-[4-chloro-3-(4-ethoxybenzyl)phenyl]-D-glucitol], for which, in the experiment with KK-A^y mice (Example 6, 3 mg/kg orally once a day for 2 weeks), the “Effect” value is reported as “significantly improved”. The Liver triglyceride content in the experiment with KK-A^y mice (Example 6, 3 mg/kg orally once a day for 2 weeks, vehicle 60.2 ± 7.1) is 28.6 ± 3.9 mg/g liver.

In turn, `CCOC(=O)OC[C@H]1O[C@@H](Oc2ccccc2Cc2ccc(OC)cc2)[C@H](O)[C@@H](O)[C@@H]1O` [Compound X, 2-(4-methoxybenzyl)phenyl 6-O-ethoxycarbonyl-β-D-glucopyranoside, reference compound] registered a Liver triglyceride content in the experiment with KK-A^y mice (Example 2, 3 mg/kg orally once a day for 2 weeks, vehicle 52.8 ± 4.9) of 57.9 ± 4.5 mg/g liver. The “Effect” value in the experiment with KK-A^y mice (Example 2, 36 mg/kg orally once a day for 2 weeks) is recorded as “no significant effect”; in the experiment with KK-A^y mice (Example 3, 34 mg/kg orally once a day for 2 weeks), “no significant effect”.

As for `COC(=O)OC[C@H]1O[C@@H](Oc2cc(C)cc(O)c2C(=O)CCc2ccc3occc3c2)[C@H](O)[C@@H](O)[C@@H]1O` [Compound Y, 3-(benzo[b]furan-5-yl)-2′,6′-dihydroxy-4′-methylpropiophenone 2′-O-(6-O-methoxycarbonyl)-β-D-glucopyranoside, reference compound], the Liver triglyceride content in the experiment on KK-A^y mice (Example 3, 34 mg/kg orally once a day for 2 weeks, vehicle 59.7 ± 6.2) stood at 59.7 ± 8.9 mg/g liver. Moreover, the Blood triglyceride levels result in the experiment on db/db mice is “reduced blood triglyceride levels”.
